Experimental data as given in US20200370088A1, “KIT AND METHOD FOR ANTIBIOTICS SUSCEPTIBILITY TESTING WITH THE AGAR DILUTION METHOD” ([…].R.L., priority 2019, published 2020).
≈ marks a conversion by molar mass, not a printed value.

Test system: test bacteria
Assay: Agar dilution MIC test in 12-well agarized panel (FIG. 2A-E)
Assay type: cell-based
Settings: for MIC: agar dilution test
Method: In alternative embodiments, the MIC in agar is determined by the steps of inoculating a suspension of the bacterium to be tested in a plurality of agarized wells with serial two-fold dilutions of antibiotic. The test bacteria are inoculated on the agarized wells. These inoculated wells are incubated at 35-37° C. overnight. The MIC is defined as the minimum antibiotic concentration that yielded complete inhibition of the bacteria on the wells. The steps are illustrated in FIG. 1 and FIGS. 2a-2e.
In alternative embodiments of methods as provided herein different bacterial strains such as Staphylococcus spp., Enterococcus spp., Enterobactariaceae and corresponding mixtures can be inoculated onto the surface of the agarized wells prepared according to Ref. (1) and containing various concentrations of antibiotic. The inoculated wells are incubated at about 35-37° C. for a fixed time, or in alternative embodiment for about 15-24 hours. Depending on the concentration of the antibiotic, bacterial growth results and is clearly visible on the wells. Generally, in the wells having the high concentration of antibiotic, the antibiotic inhibits the bacterial growth while on the wells having low antibiotic concentrations distinctly visible and typical growth is observed. The lowest antibiotic concentration which serves to inhibit the growth of the bacteria on the wells is defined as the minimal inhibitory concentration (MIC).
With particular reference to the FIGS. 2a-2e, the therein illustrated kit is a 12-well panel containing the antibiotic incorporated into an agar medium in different concentrations, i.e. 11 two-fold dilutions (0.25-256 μg/ml). The procedure used to carry out the test is the agar dilution (AD)method for the antimicrobial susceptibility testing of the antibiotic and is according to the one recommended by CLSI and EUCAST (Ref. 1-4) standards but in a simpler and less time-consuming way and with highly reproducible results.
All wells are inoculated with a standardized microbial suspension.
After incubation in thermostat (as described in the following paragraph, for example at 36±2° C. for 16-20 hours in ambient air) the result is read and interpreted.
Test Procedure • Take a panel from its envelope and leave it at room temperature for 10 min. • Prepare a suspension of the test organism using either the direct colony suspension or growth method. • Standardize the suspension to the density of a McFarland 0.5 standard. • Optimally within 15 min of preparation, dilute the adjusted suspension 1:10 in saline. • Dispense 2 μl of the inoculum solution over the agar surface (*) into each well (the final inoculums concentration should be approximately 10^4 CFU per spot). […]
At the end of the incubation period observe the growth in the wells and establish the MIC, i.e. the lowest concentration of antibiotic that inhibits visible growth.
Disregard single colonies or faint haze caused by the inoculum

C[C@@H]1O[C@@H]1P(=O)(O)O [fosfomycin]
MIC (48 h, FIG. 2d): 64 µg/mL (≈ 464 µM)
growth observed in well (FIG. 2E, at 1 μg/ml): faint haze
MIC (FIG. 2a): 0.5 µg/mL (≈ 3.62 µM)
MIC (FIG. 2b): 16 µg/mL (≈ 116 µM)
MIC (FIG. 2c): 2 µg/mL (≈ 14.5 µM)
